Counter-ions that a name gives are not always drawn.
Target: T1, AR protein in VCaP cells (Homo sapiens, UniProt P10275)
T1 construct: endogenous in cells; host or cells: VCaP cells
T1 sequence (P10275 1-920): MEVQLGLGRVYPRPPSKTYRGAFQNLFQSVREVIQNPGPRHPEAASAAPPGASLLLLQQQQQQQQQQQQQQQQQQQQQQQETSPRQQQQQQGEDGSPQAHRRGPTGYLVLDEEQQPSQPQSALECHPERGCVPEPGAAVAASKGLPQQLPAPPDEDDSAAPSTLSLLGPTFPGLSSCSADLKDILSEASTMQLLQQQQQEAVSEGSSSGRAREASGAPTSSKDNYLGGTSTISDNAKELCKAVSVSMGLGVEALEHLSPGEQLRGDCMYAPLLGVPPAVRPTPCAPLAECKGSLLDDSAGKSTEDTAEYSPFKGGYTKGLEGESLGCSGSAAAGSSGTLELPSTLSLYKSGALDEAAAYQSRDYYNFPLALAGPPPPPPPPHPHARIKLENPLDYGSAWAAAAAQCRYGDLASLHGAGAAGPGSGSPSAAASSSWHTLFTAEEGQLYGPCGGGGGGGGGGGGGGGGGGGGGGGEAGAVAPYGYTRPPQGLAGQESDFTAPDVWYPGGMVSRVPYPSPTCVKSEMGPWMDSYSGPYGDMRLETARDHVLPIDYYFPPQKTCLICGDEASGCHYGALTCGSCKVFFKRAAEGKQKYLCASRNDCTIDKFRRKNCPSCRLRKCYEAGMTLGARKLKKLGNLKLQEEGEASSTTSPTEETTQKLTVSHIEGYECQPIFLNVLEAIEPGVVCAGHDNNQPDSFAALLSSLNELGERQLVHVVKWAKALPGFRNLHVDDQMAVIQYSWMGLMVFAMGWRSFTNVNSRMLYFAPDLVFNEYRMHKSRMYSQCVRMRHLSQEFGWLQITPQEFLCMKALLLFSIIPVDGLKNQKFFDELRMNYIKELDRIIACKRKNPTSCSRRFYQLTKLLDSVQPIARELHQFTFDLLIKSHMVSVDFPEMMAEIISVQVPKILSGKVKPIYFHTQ
Experiment: VCAP AR Degradation Assay
Type: cell-based
Settings: 24 h, AR ELISA; for DC50: concentration at 50% of DMSO control (50% AR degradation); for Y: lowest measured AR level normalized to DMSO control
Procedure: VCAP AR Degradation Assay. Test compounds were pre-dispensed into a Corning CellBind 96-well clear bottom plate (Cat #3300) using an acoustic dispenser to make a 10-point concentration series at 1:3 dilution for each compound. The final top concentration of each compound was 5 μM. DMSO at a final concentration of 0.1% was used as a control. VCaP cells cultured in DMEM with 8% fetal bovine serum (FBS) were seeded at 50K cells per well in a 200 μL volume into the compound plate and incubated at 37° C. in a CO2 incubator for 24 h. The medium was carefully removed from the cells and the plate was placed on ice. One hundred μL of ice-cold 1× cell lysis buffer from Cell Signaling Technologies (Cat #9803) was added to each well of the cells and the plate was incubated at 4° C. on a shaker for 1 h. Fifteen μL of cell lysate was used for AR ELISA detection using a PathScan Total Sandwich AR ELISA kit (Cell Signaling Technology, Cat #12580). AR levels in compound-treated wells were normalized to that of DMSO control and expressed as percent of control (PoC) (y). A Four Parameter Logistic Model (Sigmoidal Dose-Response Model) was used to determine the compound's DC50, and EC50, using the following equation: y=(A+((B−A)/(1+((C/x)^D)))) • A=YMin (lowest AR level normalized to DMSO control in response to compound treatment, as determined by curve fit) • B=YMax (maximum AR level as determined by curve fit) • C=EC50 • D=Hill Slope • x=compound concentration • EC50=the concentration of compound when y=(YMax−YMin)/2 • DC50=the concentration of the compound when y=50% of DMSO control (50% AR degradation) • y=AR protein level normalized to DMSO control
The lowest measured AR level normalized to DMSO control in response to compound treatment, termed Y value, was used to characterize the compound-mediated AR degradation efficiency.

| Structure (SMILES) | DC50 [nM] | Y |
| --- | --- | --- |
| C[C@@H]1CN(CCO[C@H]2CC[C@H](N3C(=S)N(c4ccc(C#N)c(C(F)(F)F)c4)C(=O)C3(C)C)CC2)C[C@H](C)N1CC(=O)Nc1cccc(NC2CCC(=O)NC2=O)c1 (stereo partly drawn) [Cmpd 1, 2-((2R,6S)-4-(2-((trans-4-(3-(4-Cyano-3-(trifluoromethyl)phenyl)-5,5-dimethyl-4-oxo-2-thioxoimidazolidin-1-yl)cyclohexyl)oxy)ethyl)-2,6-dimethylpiperazin-1-yl)-N-(3-((2,6-dioxopiperidin-3-yl)amino)phenyl)acetamide] | 5 to 10 | *** (25%<Y<50%) |
| C[C@@H]1CN(CCC[C@H]2CC[C@H](N3C(=S)N(c4ccc(C#N)c(C(F)(F)F)c4)C(=O)C3(C)C)CC2)C[C@H](C)N1CC(=O)Nc1cccc(NC2CCC(=O)NC2=O)c1 (stereo partly drawn) [Cmpd 2, 2-((2R,6S)-4-(3-(trans-4-(3-(4-Cyano-3-(trifluoromethyl)phenyl)-5,5-dimethyl-4-oxo-2-thioxoimidazolidin-1-yl)cyclohexyl)propyl)-2,6-dimethylpiperazin-1-yl)-N-(3-((2,6-dioxopiperidin-3-yl)amino)phenyl)acetamide] | 10 to 100 | * (0<Y≤15%) |
| C[C@@H]1CN(CCO[C@H]2CC[C@H](N3C(=S)N(c4ccc(C#N)c(C(F)(F)F)c4)C(=O)C3(C)C)CC2)C[C@H](C)N1CC(=O)Nc1cccc(N[C@@H]2CCC(=O)NC2=O)c1 [Cmpd 3, 2-((2R,6S)-4-(2-((trans-4-(3-(4-Cyano-3-(trifluoromethyl)phenyl)-5,5-dimethyl-4-oxo-2-thioxoimidazolidin-1-yl)cyclohexyl)oxy)ethyl)-2,6-dimethylpiperazin-1-yl)-N-(3-(((R)-2,6-dioxopiperidin-3-yl)amino)phenyl)acetamide hydrochloride] | 5 to 10 | *** (25%<Y<50%) |
| C[C@@H]1CN(CCO[C@H]2CC[C@H](N3C(=S)N(c4ccc(C#N)c(Cl)c4)C(=O)C3(C)C)CC2)C[C@H](C)N1CC(=O)Nc1cccc(NC2CCC(=O)NC2=O)c1 (stereo partly drawn) [Cmpd 4, 2-((2R,6S)-4-(2-((trans-4-(3-(3-Chloro-4-cyanophenyl)-5,5-dimethyl-4-oxo-2-thioxoimidazolidin-1-yl)cyclohexyl)oxy)ethyl)-2,6-dimethylpiperazin-1-yl)-N-(3-((2,6-dioxopiperidin-3-yl)amino)phenyl)acetamide hydrochloride] | ≤ 5 | ** (15%<Y≤20%) |
| C[C@@H]1CN(CCO[C@H]2CC[C@H](N3C(=S)N(c4cnc(C#N)c(C(F)(F)F)c4)C(=O)C3(C)C)CC2)C[C@H](C)N1CC(=O)Nc1cccc(NC2CCC(=O)NC2=O)c1 (stereo partly drawn) [Cmpd 5, 2-((2R,6S)-4-(2-((trans-4-(3-(6-Cyano-5-(trifluoromethyl)pyridin-3-yl)-5,5-dimethyl-4-oxo-2-thioxoimidazolidin-1-yl)cyclohexyl)oxy)ethyl)-2,6-dimethylpiperazin-1-yl)-N-(3-((2,6-dioxopiperidin-3-yl)amino)phenyl)acetamide hydrochloride] | ≤ 5 | *** (25%<Y<50%) |
| C[C@@H]1CN(CCC[C@H]2CC[C@H](N3C(=S)N(c4ccc(C#N)c(C(F)(F)F)c4)C(=O)C3(C)C)CC2)C[C@H](C)N1CC(=O)Nc1cccc(N[C@@H]2CCC(=O)NC2=O)c1 [Cmpd 6, 2-((2R,6S)-4-(3-(trans-4-(3-(4-Cyano-3-(trifluoromethyl)phenyl)-5,5-dimethyl-4-oxo-2-thioxoimidazolidin-1-yl)cyclohexyl)propyl)-2,6-dimethylpiperazin-1-yl)-N-(3-(((R)-2,6-dioxopiperidin-3-yl)amino)phenyl)acetamide hydrochloride] | 5 to 10 | * (0<Y≤15%) |
| C[C@@H]1CN(CCO[C@H]2CC[C@H](N3C(=S)N(c4ccc(C#N)c(S(F)(F)(F)(F)F)c4)C(=O)C3(C)C)CC2)C[C@H](C)N1CC(=O)Nc1cccc(NC2CCC(=O)NC2=O)c1 (stereo partly drawn) [Cmpd 7, 2-((2R,6S)-4-(2-((trans-4-(3-(4-Cyano-3-(pentafluoro-λ^6-sulfaneyl)phenyl)-5,5-dimethyl-4-oxo-2-thioxoimidazolidin-1-yl)cyclohexyl)oxy)ethyl)-2,6-dimethylpiperazin-1-yl)-N-(3-((2,6-dioxopiperidin-3-yl)amino)phenyl)acetamide hydrochloride] | 10 to 100 | *** (25%<Y<50%) |
| C[C@@H]1CN(CCO[C@H]2CC[C@H](N3C(=S)N(c4cnc(C#N)c(Cl)c4)C(=O)C3(C)C)CC2)C[C@H](C)N1CC(=O)Nc1cccc(NC2CCC(=O)NC2=O)c1 (some centres unmarked) [Cmpd 8, hydrochloride] | 5 to 10 | *** (25%<Y<50%) |
| C[C@@H]1CN(CCCO[C@H]2CC[C@H](N3C(=S)N(c4ccc(C#N)c(Cl)c4)C(=O)C3(C)C)CC2)C[C@H](C)N1CC(=O)Nc1cccc(NC2CCC(=O)NC2=O)c1 (stereo partly drawn) [Cmpd 9, 2-((2R,6S)-4-(3-((trans-4-(3-(3-Chloro-4-cyanophenyl)-5,5-dimethyl-4-oxo-2-thioxoimidazolidin-1-yl)cyclohexyl)oxy)propyl)-2,6-dimethylpiperazin-1-yl)-N-(3-((2,6-dioxopiperidin-3-yl)amino)phenyl)acetamide hydrochloride] | ≤ 5 | *** (25%<Y<50%) |
| C[C@@H]1CN(CCCO[C@H]2CC[C@H](N3C(=S)N(c4cnc(C#N)c(C(F)(F)F)c4)C(=O)C3(C)C)CC2)C[C@H](C)N1CC(=O)Nc1cccc(NC2CCC(=O)NC2=O)c1 (stereo partly drawn) [Cmpd 10, 2-((2R,6S)-4-(3-((trans-4-(3-(6-Cyano-5-(trifluoromethyl)pyridin-3-yl)-5,5-dimethyl-4-oxo-2-thioxoimidazolidin-1-yl)cyclohexyl)oxy)propyl)-2,6-dimethylpiperazin-1-yl)-N-(3-((2,6-dioxopiperidin-3-yl)amino)phenyl)acetamide hydrochloride] | ≤ 5 | ** (15%<Y≤20%) |
| C[C@@H]1CN(CCC[C@H]2CC[C@H](N3C(=S)N(c4cnc(C#N)c(C(F)(F)F)c4)C(=O)C3(C)C)CC2)C[C@H](C)N1CC(=O)Nc1cccc(NC2CCC(=O)NC2=O)c1 (stereo partly drawn) [Cmpd 11, 2-((2R,6S)-4-(3-(trans-4-(3-(6-Cyano-5-(trifluoromethyl)pyridin-3-yl)-5,5-dimethyl-4-oxo-2-thioxoimidazolidin-1-yl)cyclohexyl)propyl)-2,6-dimethylpiperazin-1-yl)-N-(3-((2,6-dioxopiperidin-3-yl)amino)phenyl)acetamide hydrochloride] | ≤ 5 | * (0<Y≤15%) |
| C[C@@H]1CN(CCCO[C@H]2CC[C@H](N3C(=S)N(c4ccc(C#N)c(C(F)(F)F)c4)C(=O)C3(C)C)CC2)C[C@H](C)N1CC(=O)Nc1cccc(NC2CCC(=O)NC2=O)c1 (stereo partly drawn) [Cmpd 12, 2-((2R,6S)-4-(3-((trans-4-(3-(4-Cyano-3-(trifluoromethyl)phenyl)-5,5-dimethyl-4-oxo-2-thioxoimidazolidin-1-yl)cyclohexyl)oxy)propyl)-2,6-dimethylpiperazin-1-yl)-N-(3-((2,6-dioxopiperidin-3-yl)amino)phenyl)acetamide hydrochloride] | 5 to 10 | *** (25%<Y<50%) |
| C[C@@H]1CN(CCC[C@H]2CC[C@H](N3C(=S)N(c4cnc(C#N)c(Cl)c4)C(=O)C3(C)C)CC2)C[C@H](C)N1CC(=O)Nc1cccc(NC2CCC(=O)NC2=O)c1 (stereo partly drawn) [Cmpd 13, 2-((2R,6S)-4-(3-(trans-4-(3-(5-Chloro-6-cyanopyridin-3-yl)-5,5-dimethyl-4-oxo-2-thioxoimidazolidin-1-yl)cyclohexyl)propyl)-2,6-dimethylpiperazin-1-yl)-N-(3-((2,6-dioxopiperidin-3-yl)amino)phenyl)acetamide hydrochloride] | 5 to 10 | *** (25%<Y<50%) |
